Laboratory results: patent publication US7812022B2 (GlaxoSmithKline LLC, priority 2004, dated 2010)

Columns and labels:
[1] = molecular target: T1, ErbB2 or EGFR; assay: ErbB family substrate phosphorylation enzyme assay (HTRF), Method A or Method B; assay type: biochemical
T1 construct: enzymes purified from a baculovirus expression system; Reagent production was conducted essentially as described in Brignola, P. S., et al, (2002) J. Biol. Chem. 277(2): 1576-1585
In short: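 Baculovirus-expressed EGFR or ErbB2 (0.8 or 10 nM in enzyme mix) phosphorylates biotinylated Peptide C with 20 µM ATP and 0.8 µM peptide (substrate-mix levels), MnCl2, pH 7.5. Reaction ran 90 min at 20 °C with EDTA stop and HTRF anti-phosphotyrosine read. Method A: enzyme added last; Method B: 1 h enzyme–compound preincubation.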

[2] = system: BT474 and HN5 tumor cell lines; assay: Methylene blue growth inhibition assay (cellular Method A); assay type: cell-based, Human; conditions: Homo sapiens, BT-474, 72 h, 3 days, read-out: Activity (Method): growth inhibition IC50 class
In short: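 Colo205, BT474 and HN5 cells in DMEM/10% FBS (BT474 10,000, HN5 3,000 cells/well) treated next day with compound in DMEM, 0.3% final DMSO, for 3 days at 37° C. Biomass stained with methylene blue, solubilized, read at OD 620; IC50 interpolated by nonlinear regression from % inhibition versus vehicle.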

[3] = Method B: enzyme mix pre-incubated with compound 1 hour at 20° C., started with substrate mix
[4] = Method A: substrate mix added first, reaction started with enzyme mix

Row | Structure (SMILES) | IC50 [2] | Activity (Method): pIC50 class against ErbB2 or EGFR [1, 3] | Activity (Method): pIC50 class against ErbB2 or EGFR [1, 4]
1 | O=C(Nc1cccc(-c2nn3ccccc3c2-c2ccnc(Nc3cccc(F)c3)n2)c1)c1ccc(F)cc1 [Example 15, 4-Fluoro-N-(3-{3-[2-(3-fluoro-phenylamino)-pyrimidin-4-yl]-pyrazolo[1,5-a]pyridin-2-yl}-phenyl)-benzamide] | 100 to 1000 nM | +++ (B) (at least one pIC50 measurement of greater than 7 against either ErbB2 or EGFR) | –
2 | O=C(Nc1cccc(-c2nn3ccccc3c2-c2ccnc(Nc3ccccc3)n2)c1)c1cccs1 [Example 139] | 100 to 1000 nM | – | ++ (A) (at least one pIC50 measurement greater than 6 against either ErbB2 or EGFR but no measurement greater than pIC50 of 7)
3 | O=C(Nc1cccc(-c2nn3ccccc3c2-c2ccnc(Nc3ccc(Nc4ccccc4)cc3)n2)c1)c1c(F)cccc1F [Example 96] | 100 to 1000 nM | – | ++ (A) (at least one pIC50 measurement greater than 6 against either ErbB2 or EGFR but no measurement greater than pIC50 of 7)
4 | O=C(Nc1cccc(-c2nn3ccccc3c2-c2ccnc(Nc3cccc(F)c3)n2)c1)c1ccno1 [Example 67, N-[3-(3-{2-[(3-fluorophenyl)amino]-4-pyrimidinyl}pyrazolo[1,5-a]pyridin-2-yl)phenyl]-5-isoxazolecarboxamide] | 100 to 1000 nM | +++ (B) (at least one pIC50 measurement of greater than 7 against either ErbB2 or EGFR) | –
5 | Cc1noc(C)c1C(=O)Nc1cccc(-c2nn3ccccc3c2-c2ccnc(Nc3cccc(F)c3)n2)c1 [Example 38, N-[3-(3-{2-[(3-fluorophenyl)amino]-4-pyrimidinyl}-pyrazolo[1,5-a]pyridin-2-yl)phenyl]-3,5-dimethyl-4-isoxazolecarboxamide] | 100 to 1000 nM | +++ (B) (at least one pIC50 measurement of greater than 7 against either ErbB2 or EGFR) | –
6 | O=C(Nc1cccc(-c2nn3ccccc3c2-c2ccnc(Nc3cccc(F)c3)n2)c1)c1ccc(F)cc1F [Example 19, 2,4-Difluoro-N-(3-{3-[2-(3-fluoro-phenylamino)-pyrimidin-4-yl]-pyrazolo[1,5-a]pyridin-2-yl}-phenyl)-benzamide] | 100 to 1000 nM | +++ (B) (at least one pIC50 measurement of greater than 7 against either ErbB2 or EGFR) | –
7 | O=C(Nc1cccc(-c2nn3ccccc3c2-c2ccnc(Nc3ccc(Cl)cc3)n2)c1)c1c(F)cccc1F [Example 92] | 100 to 1000 nM | – | ++ (A) (at least one pIC50 measurement greater than 6 against either ErbB2 or EGFR but no measurement greater than pIC50 of 7)
8 | Cn1cccc1C(=O)Nc1cccc(-c2nn3ccccc3c2-c2ccnc(Nc3ccccc3)n2)c1 [Example 149, N-{3-[3-(2-phenylamino-4-pyrimidinyl)-pyrazolo[1,5-b]pyridin-2-yl]phenyl}-1-methyl-1H-pyrrole-2-carboxamide] | 100 to 1000 nM | – | ++ (A) (at least one pIC50 measurement greater than 6 against either ErbB2 or EGFR but no measurement greater than pIC50 of 7)
9 | O=C(Nc1cccc(-c2nn3ccccc3c2-c2ccnc(Nc3ccc(Cl)c(C(F)(F)F)c3)n2)c1)c1c(F)cccc1F [Example 89] | 100 to 1000 nM | – | ++ (A) (at least one pIC50 measurement greater than 6 against either ErbB2 or EGFR but no measurement greater than pIC50 of 7)
10 | O=C(Nc1cccc(-c2nn3ccccc3c2-c2ccnc(Nc3cccc(F)c3)n2)c1)c1ccnc(Cl)c1 [Example 73, 2-Chloro-N-[3-(3-{2-[(3-fluorophenyl)amino]-4-pyrimidinyl}pyrazolo[1,5-a]pyridin-2-yl)phenyl]-4-pyridinecarboxamide] | > 1000 nM | ++ (B) (at least one pIC50 measurement greater than 6 against either ErbB2 or EGFR but no measurement greater than pIC50 of 7) | –
11 | O=C(Nc1cccc(-c2nn3ccccc3c2-c2ccnc(Nc3ccccc3)n2)c1)c1ccco1 [Example 137, Furan-2-carboxylic acid {3-[3-(2-phenylamino-pyrimidin-4-yl)-pyrazolo[1,5-a]pyridin-2-yl]-phenyl}-amide] | 100 to 1000 nM | – | +++ (A) (at least one pIC50 measurement of greater than 7 against either ErbB2 or EGFR)
12 | CN(CCCOc1ccc(N)cc1F)c1nccc(-c2c(-c3cccc(NC(=O)c4c(F)cccc4F)c3)nn3ccccc23)n1 [Example 130, N-[3-(3-{2-[{3-[(4-Amino-2-fluorophenyl)oxy]propyl}(methyl)amino]-4-pyrimidinyl}pyrazolo[1,5-a]pyridin-2-yl)phenyl]-2,6-difluorobenzamide] | > 1000 nM | – | ++ (A) (at least one pIC50 measurement greater than 6 against either ErbB2 or EGFR but no measurement greater than pIC50 of 7)
13 | Cn1nnc2cc(C(=O)Nc3cccc(-c4nn5ccccc5c4-c4ccnc(Nc5cccc(F)c5)n4)c3)ccc21 [Example 26, N-[3-(3-{2-[(3-fluorophenyl)amino]-4-pyrimidinyl}pyrazolo[1,5-a]pyridin-2-yl)phenyl]-1-methyl-1H-1,2,3-benzotriazole-5-carboxamide] | > 1000 nM | ++ (B) (at least one pIC50 measurement greater than 6 against either ErbB2 or EGFR but no measurement greater than pIC50 of 7) | –
14 | O=C(Nc1cccc(-c2nn3ccccc3c2-c2ccnc(Nc3cccc(F)c3)n2)c1)c1ccccc1OC(F)(F)F [Example 68, N-[3-(3-{2-[(3-fluorophenyl)amino]-4-pyrimidinyl}-pyrazolo[1,5-a]pyridin-2-yl)phenyl]-2-[(trifluoromethyl)oxy]benzamide] | 100 to 1000 nM | ++ (B) (at least one pIC50 measurement greater than 6 against either ErbB2 or EGFR but no measurement greater than pIC50 of 7) | –
15 | O=C(Nc1cccc(-c2nn3ccccc3c2-c2ccnc(Nc3cccc(F)c3)n2)c1)c1ccc(Cl)nc1 [Example 74, 6-Chloro-N-[3-(3-{2-[(3-fluorophenyl)amino]-4-pyrimidinyl}pyrazolo[1,5-a]pyridin-2-yl)phenyl]-3-pyridinecarboxamide] | 100 to 1000 nM | ++ (B) (at least one pIC50 measurement greater than 6 against either ErbB2 or EGFR but no measurement greater than pIC50 of 7) | –

Now from value to molecule, other results behind:

Row | IC50 [2] | Structure (SMILES) | Activity (Method): pIC50 class against ErbB2 or EGFR [1, 3] | Activity (Method): pIC50 class against ErbB2 or EGFR [1, 4]
16 | < 100 nM | Cc1ccsc1C(=O)Nc1cccc(-c2nn3ccccc3c2-c2ccnc(Nc3ccccc3)n2)c1 [Example 145, 3-Methyl-N-(3-{3-[2-(phenylamino)-4-pyrimidinyl]pyrazolo[1,5-a]pyridin-2-yl}phenyl)-2-thiophenecarboxamide] | – | +++ (A) (at least one pIC50 measurement of greater than 7 against either ErbB2 or EGFR)
17 | < 100 nM | O=C(Nc1cccc(-c2nn3ccccc3c2-c2ccnc(Nc3ccc4c(c3)OCCO4)n2)c1)c1ccccc1Cl [Example 6, 2-Chloro-N-(3-{3-[2-(2,3-dihydro-benzo[1,4]dioxin-6-ylamino)-pyrimidin-4-yl]-pyrazolo[1,5-a]pyridin-2-yl}-phenyl)-benzamide] | – | +++ (A) (at least one pIC50 measurement of greater than 7 against either ErbB2 or EGFR)
18 | < 100 nM | N#Cc1cccc(Nc2nccc(-c3c(-c4cccc(NC(=O)c5cc(F)ccc5F)c4)nn4ccccc34)n2)c1 [Example 48, N-[3-(3-{2-[(3-Cyanophenyl)amino]-4-pyrimidinyl}pyrazolo[1,5-a]pyridin-2-yl)phenyl]-2,5-difluorobenzamide] | – | +++ (A) (at least one pIC50 measurement of greater than 7 against either ErbB2 or EGFR)
19 | < 100 nM | N#Cc1cc(Nc2nccc(-c3c(-c4cccc(NC(=O)c5c(F)cccc5F)c4)nn4ccccc34)n2)ccc1F [Example 88] | – | +++ (A) (at least one pIC50 measurement of greater than 7 against either ErbB2 or EGFR)
20 | < 100 nM | COCCOc1ccc(Nc2nccc(-c3c(-c4cccc(NC(=O)c5c(F)cccc5F)c4)nn4ccccc34)n2)cc1Cl [Example 125, N-[3-(3-{2-[(3-Chloro-4-{[2-(methyloxy)ethyl]oxy}-phenyl)amino]-4-pyrimidinyl}pyrazolo[1,5-a]pyridin-2-yl)phenyl]-2,6-difluorobenzamide] | – | +++ (A) (at least one pIC50 measurement of greater than 7 against either ErbB2 or EGFR)
21 | < 100 nM | CN(C)CCCc1ccc(Nc2nccc(-c3c(-c4cccc(NC(=O)c5c(F)cccc5F)c4)nn4ccccc34)n2)cc1 [Example 112, N-(3-{3-[2-({4-[3-(dimethylamino)propyl]phenyl}-amino)-4-pyrimidinyl]pyrazolo[1,5-a]pyridin-2-yl}phenyl)-2,6-difluorobenzamide] | +++ (B) (at least one pIC50 measurement of greater than 7 against either ErbB2 or EGFR) | –
22 | < 100 nM | O=C(Nc1cccc(-c2nn3ccccc3c2-c2ccnc(Nc3cccc(F)c3)n2)c1)c1ccccc1C(F)(F)F [Example 16, N-(3-{3-[2-(3-Fluoro-phenylamino)-pyrimidin-4-yl]-pyrazolo[1,5-a]pyridin-2-yl}-phenyl)-2-trifluoromethyl-benzamide] | +++ (B) (at least one pIC50 measurement of greater than 7 against either ErbB2 or EGFR) | –
